Experiments:
ENaC [1] = molecular target: T1, ENaC (Homo sapiens, UniProt P37088+P51168+P51170); experiment: Transepithelial voltage under thin film conditions in human bronchial epithelial cultures (microelectrode); assay type: cell-based
T1 construct: endogenous in cells; host or cells: primary human bronchial epithelial cultures
T1 sequence (P37088 1-669): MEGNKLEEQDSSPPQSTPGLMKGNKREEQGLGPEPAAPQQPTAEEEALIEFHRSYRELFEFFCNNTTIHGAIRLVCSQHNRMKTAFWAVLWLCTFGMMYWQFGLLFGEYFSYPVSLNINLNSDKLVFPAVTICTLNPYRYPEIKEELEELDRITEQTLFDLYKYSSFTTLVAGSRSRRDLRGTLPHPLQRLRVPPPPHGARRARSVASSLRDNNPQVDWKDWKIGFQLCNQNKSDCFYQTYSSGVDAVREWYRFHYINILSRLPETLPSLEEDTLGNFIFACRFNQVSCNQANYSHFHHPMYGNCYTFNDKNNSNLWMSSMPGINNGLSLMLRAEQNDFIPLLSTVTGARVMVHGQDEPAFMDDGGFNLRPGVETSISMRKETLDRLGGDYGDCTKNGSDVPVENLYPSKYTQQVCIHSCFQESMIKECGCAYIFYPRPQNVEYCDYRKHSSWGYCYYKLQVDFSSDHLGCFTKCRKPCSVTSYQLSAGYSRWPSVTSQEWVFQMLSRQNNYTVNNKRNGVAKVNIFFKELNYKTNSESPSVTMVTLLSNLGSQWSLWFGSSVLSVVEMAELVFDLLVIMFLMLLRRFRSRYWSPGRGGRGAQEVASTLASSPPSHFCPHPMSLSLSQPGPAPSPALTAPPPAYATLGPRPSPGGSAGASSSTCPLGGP
T1 sequence (P51168 1-640): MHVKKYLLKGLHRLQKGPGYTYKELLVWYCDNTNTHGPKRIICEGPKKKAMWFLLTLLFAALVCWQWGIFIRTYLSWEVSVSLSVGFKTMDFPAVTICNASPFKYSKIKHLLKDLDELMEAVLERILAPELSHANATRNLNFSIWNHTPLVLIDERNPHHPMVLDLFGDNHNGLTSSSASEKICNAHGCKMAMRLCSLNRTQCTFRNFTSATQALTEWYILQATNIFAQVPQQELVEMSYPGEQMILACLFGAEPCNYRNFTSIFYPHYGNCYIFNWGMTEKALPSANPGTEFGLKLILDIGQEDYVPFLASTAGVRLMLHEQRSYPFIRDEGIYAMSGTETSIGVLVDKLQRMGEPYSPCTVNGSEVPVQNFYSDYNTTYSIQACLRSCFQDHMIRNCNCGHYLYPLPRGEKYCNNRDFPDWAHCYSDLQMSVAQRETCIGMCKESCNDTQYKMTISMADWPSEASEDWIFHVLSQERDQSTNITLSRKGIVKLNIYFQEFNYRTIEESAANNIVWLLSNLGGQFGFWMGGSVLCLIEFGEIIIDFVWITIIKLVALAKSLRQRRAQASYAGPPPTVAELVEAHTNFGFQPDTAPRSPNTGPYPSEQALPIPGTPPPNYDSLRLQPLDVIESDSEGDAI
T1 sequence (P51170 1-649): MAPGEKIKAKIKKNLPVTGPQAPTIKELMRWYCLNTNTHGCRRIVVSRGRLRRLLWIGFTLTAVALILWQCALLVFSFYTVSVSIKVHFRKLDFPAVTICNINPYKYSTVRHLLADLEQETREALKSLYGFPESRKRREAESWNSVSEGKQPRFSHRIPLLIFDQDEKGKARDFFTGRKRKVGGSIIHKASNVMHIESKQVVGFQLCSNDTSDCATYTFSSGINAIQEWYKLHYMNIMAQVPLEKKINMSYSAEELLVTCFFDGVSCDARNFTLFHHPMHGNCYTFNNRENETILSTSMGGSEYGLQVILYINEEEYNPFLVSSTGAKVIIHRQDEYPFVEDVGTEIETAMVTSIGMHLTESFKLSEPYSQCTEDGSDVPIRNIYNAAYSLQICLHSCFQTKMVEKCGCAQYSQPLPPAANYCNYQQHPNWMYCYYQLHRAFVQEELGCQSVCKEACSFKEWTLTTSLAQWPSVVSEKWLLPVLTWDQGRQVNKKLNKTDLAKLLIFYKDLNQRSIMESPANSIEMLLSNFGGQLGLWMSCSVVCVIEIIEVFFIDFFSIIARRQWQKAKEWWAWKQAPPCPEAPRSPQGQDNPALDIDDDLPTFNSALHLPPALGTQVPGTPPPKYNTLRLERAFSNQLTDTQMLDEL
Source text: (§1) Tissue procurement and cell culture: Cells were harvested by enzymatic digestion from human bronchial tissue as previously described under a protocol approved by the UNC School of Medicine IRB (Tarran et al., J. Gen. Physiol. 127:591 (2006)). Human excess donor lungs and excised recipient lungs were obtained at the time of lung transplantation from portions of main stem or […] bronchi and cells were harvested by enzymatic digestion. All preparations were maintained at an air-liquid interface in a modified bronchial epithelial medium and used 2-5 weeks after seeding on 12 mm T-Clear inserts (Corning Costar) coated with human placental type VI collagen (Sigma). Phosphate buffered saline (PBS) was used for washing human bronchial epithelial culture mucosal surfaces.
(§2) Microelectrode studies. A single-barreled potential difference-sensing electrode was placed in the airway surface liquid by micromanipulator and used in conjunction with a macroelectrode in the serosal solution to measure transepithelial voltage using a voltmeter (World Precision Instruments). […] Transepithelial resistance was routinely measured using the EVOM system (WPI) as previously described (Tarran et al., J. Gen. Physiol. 127:591 (2006)).

serine proteases = experiment: Endogenous protease activity (BGAR-MCA cleavage) on mucosal surfaces of human bronchial epithelial cultures; assay type: cell-based
Protocol: (§3) For cell-free assays, reactions were carried out in 50 μl Ringer in a 96 well plate format with 100 μM BGAR-MCA. To measure endogenous protease activity in human bronchial epithelial cultures, 30 μl Ringer with 100 μM BGAR-MCA were placed directly onto the mucosal surfaces of human bronchial epithelial cultures grown on 12 mm T-clear inserts and the cultures were assayed in 12 well plates.

trypsin = experiment: Cell-free fluorogenic assay of BGAR-MCA cleavage by trypsin; assay type: biochemical; conditions: 2 U/ml aprotinin
Protocol: as §3

ENaC [2] = molecular target: T1, ENaC; experiment: Transepithelial electrical resistance of human bronchial epithelial cultures (EVOM); assay type: cell-based; conditions: washed cultures; 50 ng/ml SPLUNC1 for 30 min or amiloride; effects not additive
Source text: as §1, §2

αENaC = molecular target: T2, αENaC (Homo sapiens, UniProt P37088); experiment: Texas red-SPLUNC1 binding assay on JME cells expressing yfp-αENaC; conditions: polarized JME cells
T2 construct: expressed in transfected cells; host or cells: JME nasal epithelial cells (passaged, no endogenous ENaC), lentiviral vector pQCXIN
T2 sequence (P37088 1-669): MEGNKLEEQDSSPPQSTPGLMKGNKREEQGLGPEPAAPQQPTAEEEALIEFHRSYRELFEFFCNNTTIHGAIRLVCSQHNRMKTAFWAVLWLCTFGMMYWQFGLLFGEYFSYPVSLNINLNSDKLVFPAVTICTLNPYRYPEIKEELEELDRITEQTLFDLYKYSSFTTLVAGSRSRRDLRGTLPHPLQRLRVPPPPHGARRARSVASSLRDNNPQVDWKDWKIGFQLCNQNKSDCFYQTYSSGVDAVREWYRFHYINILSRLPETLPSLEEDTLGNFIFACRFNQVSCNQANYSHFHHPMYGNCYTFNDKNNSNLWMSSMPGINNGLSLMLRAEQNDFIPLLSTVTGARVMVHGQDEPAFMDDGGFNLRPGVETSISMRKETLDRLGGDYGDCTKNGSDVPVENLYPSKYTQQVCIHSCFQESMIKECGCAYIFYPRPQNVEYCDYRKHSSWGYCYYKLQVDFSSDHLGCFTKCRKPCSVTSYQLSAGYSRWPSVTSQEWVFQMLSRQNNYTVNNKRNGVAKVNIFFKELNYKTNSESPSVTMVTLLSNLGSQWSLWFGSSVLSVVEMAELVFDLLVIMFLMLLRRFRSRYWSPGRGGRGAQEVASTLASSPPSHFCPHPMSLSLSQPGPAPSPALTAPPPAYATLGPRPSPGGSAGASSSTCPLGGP
Protocol: JME cells were incubated with varying concentrations of Texas red-labeled SPLUNC1 for 30 min followed by a 5× wash with PBS. After this time images were acquired with a Nikon Ti-S inverted microscope and were quantified to obtain specific and non-specific binding using Image J. Data were then fitted with a Hill Plot to obtain the Kd.
JME nasal epithelial cells express functional ENaCs (Tong et al., Am. J. Physiol. Lung Cell. Mol. Physiol. 287:L928 (2004)). However, this attribute is lost after several passages. Thus, passaged JME cells that no longer expressed ENaC were stably infected with a lentivirus containing yfp-αENaC or an empty vector as a control and the presence or absence of αENaC was confirmed using an antibody that was constructed “in-house” that was directed against αENaC (FIG. 8).
Recombinant SPLUNC1 was labeled with Texas red according to the manufacturer's instructions (Pierce) and was freshly labeled on the day of each binding experiment. […] After this time yfp (514 nm excitation) and Texas red fluorescence (590 nm excitation) were imaged under a 60× water objective on a Nikon Ti-S inverted microscope equipped with an Orca CCD camera (Hamamatsu) switchable filter wheels (Ludl). Background fluorescence was subtracted from all images and the mean thresholded intensity was quantified to obtain specific and non-specific binding using Image J.

## aprotinin [reference compound]
ENaC [1]; rSPLUNC1 vs aprotinin addition, effects not additive
  rate of inhibition of the transepithelial voltage: identical rates
Serine proteases
  spontaneous BGAR-MCA cleavage on mucosal surfaces: inhibited
trypsin
  inhibition of trypsin activity: ~100%

## N=C(N)NC(=O)c1nc(Cl)c(N)nc1N [amiloride, reference compound]
ENaC [1]; n=12, FIG. 4 legend: 100 mM amiloride
  reduction of the transepithelial voltage: 54%
ENaC [2]
  increase of the transepithelial electrical resistance: ~33%

B1: Texas red-rSPLUNC1: recombinant SPLUNC1 labeled with Texas red (conjugate)
chain: QFGGLPVPLDQTLPLNVNPALPLSPTGLAGSLTNALSNGLLSGGLLGILENLPLLDILKPGGGTSGGLLGGLLGKVTSVIPGLNNIIDIKVTDPQLLELGLVQSPDGHRLYVTIPLGIKLQVNTPLVGASLLRLAVKLDITAEILAVRDKQERIHLVLGDCTHSPGSLQISLLDGLGPLPIQGLLDSLTGILNKVLPELVQGNVCPLVNEVLRGLDITLVHDIVNMLIHGLQFVIKV
modifications: left off: small tags and cut ends
αENaC; 30 min incubation, Hill fit
  Kd: 0.055 µg/mL
αENaC; binding isotherm
  specific (yfp-αENaC) binding vs non-specific (empty vector) binding: significantly greater and saturable

From patent US9549967B2, “Regulation of sodium channels by PLUNC proteins” (The University of North Carolina at Chapel Hill, priority 2009, dated 2017)
